Assay results as given in patent publication EP0118571A1, “Inhibitor of aldose reductase” (Kaken Pharmaceutical Co., Ltd., priority 1983, dated 1984).
Where two headings read alike, the source gives them in different places. Each block holds one compound with its values, some of them ahead of it.

Legend:
bovine lens AR (BLAR) = molecular target: T1, bovine lens AR (BLAR) (Bos taurus, UniProt P16116); test: Aldose reductase (AR) activity assay, bovine lens AR (NADPH oxidation, DL-glyceraldehyde substrate); assay type: biochemical; settings: for inhibition at 10 µM: inhibitor 10^-5M, read-out: Inhibition against enzyme activity (%) BLAR 10^-5M; for inhibition at 10 µM / inhibition at 1 µM / inhibition at 0.1 µM: 30°C, pH 6.2, 1 % propylene glycol; for inhibition at 1 µM: inhibitor 10^-6M, read-out: Inhibition against enzyme activity (%) BLAR 10^-6M; for inhibition at 0.1 µM: inhibitor 10^-7M, read-out: Inhibition against enzyme activity (%) BLAR 10^-7M
T1 construct: BLAR and RLAR were purified according to the method of Inagaki et al; from tissue; host or cells: bovine lens
Procedure: (§1) The inhibitory activitiy against AR of LARI was determined according to the following method. As reference examples, there were employed quercitrin and two flavone derivatives having a relatively similar structure to that of LARI, i.e. 6,4'-dihydroxy-5,7,8,3'-tetramethoxyflavone and 5,4'-dihydroxy-6,7,8,3'-tetramethoxyflavone (hereinafter referred to as "Ref-1" and "Ref-2", respectively).
(§2) Rat lenses were removed from eyes of rats of the Wistar strain weighing 200 to 250 g. Bovine eyes were obtained from a local abattoir, and the lenses were removed and frozen until needed.
(§3) All compounds to be subjected to examination were dissolved in propylene glycol being a useful solvent of low toxicity for some water-insoluble drugs. A 10^-3M solution was prepared and diluted to the desired concentration with propylene glycol. To the reaction mixture were added aliquots of the diluted solution to yield concentrations of 10^-8M to 10^-5M and a propylene glycol concentration of 1 %.
(§4) AR assays were conducted according to the procedure of Hayman and Kinoshita (J. Biol. Chem. 240, p. 877 (1965)), except for the addition of ammonium sulfate instead of lithium sulfate to the reaction mixture. Assays were performed at 30°C. in 0.1 M sodium phosphate buffer (pH 6.2) containing 0.4 M ammonium sulfate, 10 mM DL-glyceraldehyde and 0.16 mM NADPH and the enzyme (0.010 to 0.016 unit) in a total volume of 1.0 ml. The effects of inhibitors on the enzyme activity were determined in the reaction mixture containing 10 µl. of each inhibitor solution at the desired concentration. The blank reference to correct for non-specific reduction of NADPH contained all of the above compounds except the above DL-glyceraldehyde. The reaction was initiated by the addition of the above DL-glyceraldehyde, and the rate of NADPH oxidation was followed by recording the decrease in absorbance at 340 nm. on a Gilford model 250 spectrophotometer.
(§5) BLAR and RLAR were purified according to the method of Inagaki et al (Archs. Biochem. Biophys. 216, p. 337 (1982)). Briefly, a 40 to 75 % ammonium sulfate fraction was subjected to chromatography on DEAE-Sephacel, followed by two column chromatographic steps, i.e. affinity chromatography using Matrex gel red A and gel filtration on Sephadex G-75.
(§6) The concentration of inhibitor needed to elicit a 50 % inhibition (IC50) was determined according to the method of Kador et al (Docum. Ophthal. Proc. Series 18, p. 117 (1979)).

rat lens AR (RLAR) = molecular target: T2, rat lens AR (RLAR) (Rattus norvegicus, UniProt P07943); test: Aldose reductase (AR) activity assay, rat lens AR (NADPH oxidation, DL-glyceraldehyde substrate); assay type: biochemical; settings: for inhibition at 10 µM: inhibitor 10^-5M, read-out: Inhibition against enzyme activity (%) RLAR 10^-5M; for inhibition at 10 µM / inhibition at 1 µM / inhibition at 0.1 µM: 30°C, pH 6.2, 1 % propylene glycol; for inhibition at 1 µM: inhibitor 10^-6M, read-out: Inhibition against enzyme activity (%) RLAR 10^-6M; for inhibition at 0.1 µM: inhibitor 10^-7M, read-out: Inhibition against enzyme activity (%) RLAR 10^-7M
T2 construct: BLAR and RLAR were purified according to the method of Inagaki et al; from tissue; host or cells: rat (Wistar) lens
Procedure: as §1, §2, §3, §4, §5, §6

[1] = read-out: IC50 (concentration of inhibitor needed to elicit 50 % inhibition) BLAR
[2] = purified RLAR, Table 2, read-out: IC50 (M) X 10^6 RLAR
[3] = read-out: IC50 (concentration of inhibitor needed to elicit 50 % inhibition) RLAR

SMILES: COc1c(OC)c(OC)c2c(=O)cc(-c3ccc(O)c(O)c3)oc2c1OC [LARI, 3',4'-dihydroxy-5,6,7,8-tetramethoxyflavone]
inhibition at 10 µM (bovine lens AR (BLAR)): 100%
inhibition at 1 µM (bovine lens AR (BLAR)): 90%
inhibition at 0.1 µM (bovine lens AR (BLAR)): 37%
IC50 (bovine lens AR (BLAR); [1]): 1.8e-07 M
inhibition at 10 µM (rat lens AR (RLAR)): 97%
inhibition at 1 µM (rat lens AR (RLAR)): 93%
inhibition at 0.1 µM (rat lens AR (RLAR)): 78%
IC50 (rat lens AR (RLAR); [2]): 3e-08 M
IC50 (rat lens AR (RLAR); [3]): 3.6e-08 M
inhibitory activity against AR, times as potent as that of quercitrin (rat lens AR (RLAR); relative to quercitrin, AR in general (RLAR and BLAR not distinguished)): about 17 times

inhibition at 10 µM (bovine lens AR (BLAR)): 63%
inhibition at 1 µM (bovine lens AR (BLAR)): 19%
inhibition at 0.1 µM (bovine lens AR (BLAR)): 0%
inhibition at 10 µM (rat lens AR (RLAR)): 58%
inhibition at 1 µM (rat lens AR (RLAR)): 22%
inhibition at 0.1 µM (rat lens AR (RLAR)): 6%
SMILES: COc1cc(-c2cc(=O)c3c(OC)c(O)c(OC)c(OC)c3o2)ccc1O [Ref-1, 6,4'-dihydroxy-5,7,8,3'-tetramethoxyflavone]

SMILES: COc1cc(-c2cc(=O)c3c(O)c(OC)c(OC)c(OC)c3o2)ccc1O [Ref-2, 5,4'-dihydroxy-6,7,8,3'-tetramethoxyflavone]
inhibition at 10 µM (bovine lens AR (BLAR)): 56%
inhibition at 1 µM (bovine lens AR (BLAR)): 19%
inhibition at 0.1 µM (bovine lens AR (BLAR)): 0%
inhibition at 10 µM (rat lens AR (RLAR)): 40%
inhibition at 1 µM (rat lens AR (RLAR)): 15%
inhibition at 0.1 µM (rat lens AR (RLAR)): 0%

SMILES: C[C@@H]1O[C@@H](Oc2c(-c3ccc(O)c(O)c3)oc3cc(O)cc(O)c3c2=O)[C@H](O)[C@H](O)[C@H]1O [quercitrin]
inhibition at 10 µM (bovine lens AR (BLAR)): 66%
inhibition at 1 µM (bovine lens AR (BLAR)): 32%
inhibition at 0.1 µM (bovine lens AR (BLAR)): 0%
IC50 (bovine lens AR (BLAR); purified BLAR, Table 2, read-out: IC50 (M) X 10^6 BLAR): 3.3e-06 M
IC50 (bovine lens AR (BLAR); [1]): 3.3e-06 M
inhibition at 10 µM (rat lens AR (RLAR)): 84%
inhibition at 1 µM (rat lens AR (RLAR)): 56%
inhibition at 0.1 µM (rat lens AR (RLAR)): 38%
IC50 (rat lens AR (RLAR); [2]): 4.9e-07 M
IC50 (rat lens AR (RLAR); [3]): 4.9e-07 M
